Measurements as given in patent publication US6579873B2, “3 (5)-heteroaryl substituted pyrazoles as p38 kinase inhibitors” (Pharmacia Corporation, priority 1997, dated 2003).

Tests used:
human p38 kinase alpha [1] = target: T1, human p38 kinase alpha (Homo sapiens, UniProt Q16539); assay: p38 kinase in vitro assay, PHAS-I phosphorylation (32P-ATP); format: biochemical; conditions: p38α in vitro results based on PHAS-I assay procedure, read-out: P38α^1
T1 construct: The coding region of the human p38a cDNA was obtained by PCR-amplification from RNA; made in house; host or cells: E. coli DH10B
T1 sequence (Q16539 whole entry): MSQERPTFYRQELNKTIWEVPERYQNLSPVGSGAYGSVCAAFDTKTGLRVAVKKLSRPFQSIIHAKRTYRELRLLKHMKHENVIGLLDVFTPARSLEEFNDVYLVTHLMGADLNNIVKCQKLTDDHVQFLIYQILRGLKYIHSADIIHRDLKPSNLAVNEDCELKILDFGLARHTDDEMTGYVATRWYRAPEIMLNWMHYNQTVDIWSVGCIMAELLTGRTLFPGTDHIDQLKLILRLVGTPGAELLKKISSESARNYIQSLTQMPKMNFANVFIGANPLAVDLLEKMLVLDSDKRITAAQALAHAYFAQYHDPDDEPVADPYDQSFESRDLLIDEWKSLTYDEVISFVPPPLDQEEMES
Description: The ability of compounds to inhibit human p38 kinase alpha was evaluated using two in vitro assay methods. In the first method, activated human p38 kinase alpha phosphorylates a biotinylated substrate, PHAS-I (phosphorylated heat and acid stable protein-insulin inducible), in the presence of gamma ^32P-ATP (^32P-ATP). PHAS-I was biotinylated prior to the assay and provides a means of capturing the substrate which is phosphorylated during the assay. p38 Kinase was activated by MKK6. Compounds were tested in 10 fold serial dilutions over the range of 100 μM to 0.001 μM using 1% DMSO. Each concentration of inhibitor was tested in triplicate.
All reactions were carried out in 96 well polypropylene plates. Each reaction well contained 25 mM HEPES pH 7.5, 10 mM magnesium acetate and 50 μM unlabeled ATP. Activation of p38 was required to achieve sufficient signal in the assay. Biotinylated PHAS-I was used at 1-2 μg per 50 μl reaction volume, with a final concentration of 1.5 μM. Activated human p38 kinase alpha was used at 1 μg per 50 μl reaction volume representing a final concentration of 0.3 μM. Gamma ^32P-ATP was used to follow the phosphorylation of PHAS-I. ^32P-ATP has a specific activity of 3000 Ci/mmol and was used at 1.2 μCi per 50 μl reaction volume. The reaction Proceeded either for one hour or overnight at 30° C.
Following incubation, 20 μl of reaction mixture was transferred to a high capacity streptavidin coated filter plate (SAM-streptavidin-matrix, Promega) prewetted with phosphate buffered saline. The transferred reaction mix was allowed to contact the streptavidin membrane of the Promega plate for 1-2 minutes. Following capture of biotinylated PHAS-I with ^32P incorporated, each well was washed to remove unincorporated ^32P-ATP three times with 2M NaCl, three washes of 2M NaCl with 1% phosphoric, three washes of distilled water and finally a single wash of 95% ethanol. Filter plates were air dried and 20 μl of scintillant was added. The plates were sealed and counted.

[2] = system: TNF production by U937 cells; assay: LPS stimulation of TNF production by U937 cells; format: cell-based; conditions: Homo sapiens, U-937, LPS-stimulated TNF-α release, differentiated U937 cells, 4 hour incubation
Description: U937 cells (ATCC) were propagated in RPMI 1640 containing 10% Fetal bovine serum, 100 IU/ml penicillin, 100 μg/ml streptomycin, and 2 mM glutamine (Gibco). Fifty million cells in 100 ml media were induced to terminal monocytic differentiation by 24 hour incubation with 20 ng/ml phorbol 12-myristate 13-acetate (Sigma). The cells were washed by centrifugation (200×g for 5 min) and resuspended in 100 ml fresh medium. After 24-48 hours, the cells were harvested, centrifuged, and resuspended in culture medium at 2 million cells/ml.
U937 cells (0.1 ml, 2 million/ml) were incubated with 0.1 ml compound (0.004-50 μM, final concentration) for 1 hour in 96 well microtiter plates. Compounds were prepared as 10 mM stock solutions in DMSO and diluted in culture medium to yield a final DMSO concentration of 0.1% in the cell assay. LPS (E. coli, 100 ng/ml final concentration) was then added at a volume of 0.02 ml. After 4 hour incubation at 37° C., the amount of TNF-α released in the culture medium was quantitated by ELISA. Inhibitory potency is expressed as IC50 (μM).

human p38 kinase alpha [3] = target: T1, human p38 kinase alpha; assay: p38 kinase in vitro assay, EGFRP phosphorylation (33P-ATP); format: biochemical; conditions: p38α in vitro results based on EGFRP assay procedure, read-out: p38α^2
Description: A second assay format was also employed that is based on p38 kinase alpha induced phosphorylation of EGFRP (epidermal growth factor receptor peptide, a 21 mer) in the presence of ^33P-ATP. Compounds were tested in 10 fold serial dilutions over the range of 100 μM to 0.001 μM in 1% DMSO. Each concentration of inhibitor was tested in triplicate. Compounds were evaluated in 50 μl reaction volumes in the presence of 25 mM Hepes pH 7.5, 10 mM magnesium acetate, 4% glycerol, 0.4% bovine serum albumin, 0.4 mM DTT, 50 μM unlabeled ATP, 25 μg EGFRP (200 μM), and 0.05 uCi gamma ^33P-ATP. Reactions were initiated by addition of 0.09 μg of activated, purified human GST-p38 kinase alpha. Activation was carried out using GST-MKK6 (5:1,p38:MKK6) for one hour at 30° C. in the presence of 50 μM ATP. Following incubation for 60 minutes at room temperature, the reaction was stopped by addition of 150 μl of AG 1×8 resin in 900 mM sodium formate buffer, pH 3.0 (1 volume resin to 2 volumes buffer). The mixture was mixed three times with pipetting and the resin was allowed to settle. A total of 50 μl of clarified solution head volume was transferred from the reaction wells to Microlite-2 plates. 150 μl of Microscint 40 was then added to each well of the Microlite plate, and the plate was sealed, mixed, and counted.

serum TNF = assay: Mouse model of LPS-induced TNF alpha production; format: in vivo, BALB/c female mice; conditions: percent inhibition of serum TNF, oral gavage 6 hours prior to LPS injection, mice
Description: TNF alpha was induced in 10-12 week old BALB/c female mice by tail vein injection with 100 ng lipopolysaccharide (from S. Typhosa) in 0.2 ml saline. One hour later mice were bled from the retroorbital sinus and TNF concentrations in serum from clotted blood were quantified by ELISA. Typically, peak levels of serum TNF ranged from 2-6 ng/ml one hour after LPS injection.
The compounds tested were administered to fasted mice by oral gavage as a suspension in 0.2 ml of 0.5% methylcellulose and 0.025% Tween 20 in water at 1 hour or 6 hours prior to LPS injection. The 1 hour protocol allowed evaluation of compound potency at Cmax plasma levels whereas the 6 hour protocol allowed estimation of compound duration of action. Efficacy was determined at each time point as percent inhibition of serum TNF levels relative to LPS injected mice that received vehicle only.

Row | Compound | IC50 (human p38 kinase alpha [1]) [µM] | melting point [°C] | IC50 [2] [µM] | IC50 (human p38 kinase alpha [3]) [µM] | mLPS (6 h @ (30 mpk)) (serum TNF) [%]
1 | 4-(4-fluorophenyl)-3-(4-pyridinyl)-1H-pyrazole-1-ethanol and 4-(4-fluorophenyl)-5-(4-pyridinyl)-1H-pyrazole-1-ethanol [Example 11] | 0.695 | – | – | – | –
2 | 4-(4-fluorophenyl)-N,N-dimethyl-3-(4-pyridinyl)-1H-pyrazole-1-ethanamine and 4-(4fluorophenyl)-N,N-dimethyl-5-(4-pyridinyl)-1H-pyrazole-1-ethanamine [Example 12] | 0.941 | – | – | – | –
3 | 4-[2-[4-(4-fluorophenyl)-3-(4-pyridinyl)-1H-pyrazol-1-yl]ethyl]morpholine and 4-[2-[4-(4-fluorophenyl)-5-(4-pyridinyl)-1H-pyrazol-1-yl]ethyl]morpholine [Example 13] | 0.86 | – | – | – | –
4 | Cc1n[nH]c(-c2ccncc2)c1-c1ccccc1 [Example 1, 4-(3-methyl-4-phenyl-1H-pyrazol-5-yl)pyridine] | 30 | 164 to 165 | ≥ 10 | 13.3 | –
5 | CS(=O)(=O)Nc1n[nH]c(-c2ccncc2)c1-c1ccc(F)cc1 [Example 3, N-[4 (4-fluorophenyl)-5-(4-pyridinyl)-1H-pyrazol-3-yl]methanesulfonamide] | – | 168 to 170 | > 10 | 2.55 | –
6 | CNS(=O)(=O)Nc1n[nH]c(-c2ccncc2)c1-c1ccc(F)cc1 [Example 4, N-[4-(4-fluorophenyl)-5-(4-pyridinyl)-1H-pyrazol-3-yl]-N′-methylsulfamide] | – | 194 to 195 | 4.7 | 0.23 | 54
7 | CNC(=O)Nc1n[nH]c(-c2ccncc2)c1-c1ccc(F)cc1 [Example 8, N-[4-(4-fluorophenyl)-5-(4-pyridinyl)-1H-pyrazol-3-yl]-N′-methylurea] | – | 212 to 213 | ≥ 10 | – | –
8 | Cn1cc(-c2ccc(F)cc2)c(-c2ccncc2)n1 [Example 10, 4-[4-(4-fluorophenyl)-1-methyl-1H-pyrazol-3-yl]pyridine] | 7.23 | – | 1.6 | 0.4 | 76
9 | Clc1ccc(-c2c[nH]nc2-c2ccncc2)cc1 [Example 15, 4-[4-(4-chlorcophenyl)-1H-pyrazol-3-yl]pyridine] | 5.9 | – | – | 0.75 | 32

Further lines, with some results ahead:

Row | IC50 (human p38 kinase alpha [1]) [µM] | melting point [°C] | IC50 [2] [µM] | IC50 (human p38 kinase alpha [3]) [µM] | Compound | mLPS (6 h @ (30 mpk)) (serum TNF) [%]
10 | – | 178 to 180 | 10.6 | 6.21 | Nc1n[nH]c(-c2ccncc2)c1-c1ccc(F)cc1 [Example 2, 4-(4-fluorophenyl)-5-(4-pyridinyl)-1H-pyrazol-3-amine] | –
11 | 1.98 | – | 5.53 | – | NC(=O)Nc1n[nH]c(-c2ccncc2)c1-c1ccc(F)cc1 [Example 5, [4-(4-fluorophenyl)-5-(4-pyridinyl)-1H-pyrazol-3-yl]urea] | –
12 | – | 257 to 258 | ≥ 10 | 5.48 | Cn1nc(-c2ccncc2)c(-c2ccc(Cl)cc2)c1N [Example 7, 4-(4-chlorophenyl)-1-methyl-3-(4-pyridinyl)-1H-pyrazol-5-amine] | –
13 | 2.44 | – | 0.647 | 3.46 | Fc1ccc(-c2cn[nH]c2-c2ccncc2)cc1 [Example 9, 4-[4-(4-fluorophenyl)-1H-pyrazol-3-yl]pyridine] | 42
